Each structure is given as a SMILES string. Structures can show the parent of a compound that is named as a salt.

Test [1] has as its system Protease XXIII from Aspergillus oryzae (Enzyme A). The test can be described thus: Homogeneous aqueous enzymatic resolution (ester hydrolysis) with Enzyme A. It counts as biochemical. Conditions: acid product (R); 100 mg enzyme A, pH 7.0, 20 hours, 20-22 C. As to the method:
No further purification was performed.

Test [2] relates to protease Prozyme 6 (Enzyme F). Kind of test: Homogeneous aqueous enzymatic resolution with Enzyme F. It counts as biochemical, Aspergillus oryzae. Particulars: for Conversion in Homogeneous Aqueous Reaction System: 0.5M ester, pH 7.0, 30 C. As to the method: The enzymatic reaction mixtures were capped and briefly shaken until all the substrate had dissolved, and the enzyme had completely dissolved or dispersed. […] Evaporation of the ether left a white solid. The result is summarized below in Table 11 Rotations were measured at c=1 in CHCl3.
The enzymatic reaction mixtures were capped and briefly shaken until all the substrate had dissolved, and the enzyme had completely dissolved or dispersed. […] Evaporation of the ether left a white solid. Rotations were measured at c=1 in CHCl3.
The reaction was started by adding 100 mg of the protease (F) from the fungus Aspergillus oryzae (from Amano Enzyme Corporation, Prozyme 6, 60,000 units per mg of solid).
After 20 hours at room temperature, the solution was acidified to pH 2 and extracted with 3 volumes of diethyl ether. The aqueous phase was saved for subsequent workup. The ether phase was washed with two volumes of distilled water and then one volume of saturated sodium chloride, and then it was dried over MgSO4 and subsequently evaporated to dryness. The resolved ibuprofen product recovered was 930 mg of white powder, indicating 45% conversion of racemic ester to acid. The optical rotation was -0.580° (measured at c=1 in ethanol), indicating the R isomer of ibuprofen.
35 mg of protease Enzyme F, as the commercial preparation Prozyme 6, were added to the aqueous solution. The reaction flask was capped, and briefly shaken until all the enzyme had dissolved or dispersed. […] The resulting mixture was diluted with one volume of water and was extracted with diethyl ether (2 times 200 ml). The ether layers were combined and backwashed with water (2 times 200 ml), saturated NaCl solution (200 ml), and then dried over MgSO4.
In this control run, a 0.5M ester solution of (1) was prepared in 325 ml of 0.1M sodium phosphate buffer (pH 7.0). The reaction was started by adding 3 gm of the above enzyme (F). The pH was controlled at 7.0 with 8.22M sodium hydroxide. After 6.49 hours at 30° C., 6.63 ml of hydroxide were added, indicating 37.7% conversion. The reaction was allowed to continue overnight and, after 23.1 hours, a total of 7.2 ml of sodium hydroxide were added, indicating 40.9% conversion.

Test [3] concerns protease Prozyme 6 (Enzyme F). Kind of test: Asymmetric hydrolysis in an extractive dispersion reactor with Enzyme F. It counts as biochemical, Aspergillus oryzae. Particulars: 100 mg Prozyme 6, 3.38 gm ester in 100 ml buffer pH 7.0 and 100 ml hexane, 3.5 hours, room temperature. As to the method:
In this Example, the hexane was dispersed in the reaction vessel to extract the inhibitory ibuprofen acid as it is formed. The reaction was started by adding 100 mg of the protease from the fungus Aspergillus oryzae (from Amano Enzyme Corporation, Prozyme 6, 60,000 units per mg of solid).
After 3.5 hours at room temperature with vigorous stirring, the solution was acidified to pH 2 and extracted with 2 volumes of hexane. The aqueous phase was saved for subsequent workup. The hexane phase was dried over MgSO4 and evaporated to dryness. The resolved ibuprofen product so recovered consisted of 490 mg of white powder, indicating 24% conversion. The optical rotation was -0.568° (c=1.015 in ethanol), indicating the R isomer of ibuprofen.

In test [4] the test system is protease Prozyme 6 (Enzyme F). The test can be described thus: Asymmetric hydrolysis in an extractive membrane reactor with Enzyme F. It is filed as biochemical, Aspergillus oryzae. The text has this:
Hexane was recirculated through the lumen or bores of the fibers in the module. The aqueous solution in the shell contained the enzyme and ester. While the cellulose membrane is water-wet, the membrane rejects the macromolecular enzyme (molecular weight 18,000). Therefore, the enzyme resides solely in the aqueous ester solution. As the ibuprofen acid was formed, it was extracted into the hexane phase, thereby reducing the effect of product (ibuprofen acid) inhibition on the activity of the enzyme.
The aqueous phase used to extract the ibuprofen acid from hexane in this module contained 0.1 M sodium carbonate buffer at pH 9.5. The pH was maintained at this value by the addition of 8.22M sodium hydroxide as required.
In this Example, the aqueous stream in the extractive membrane reactor module consisted of a solution of the sulfomethyl ester of ibuprofen (1), which solution was prepared by adding 32.51 gm of the sodium salt of the ester (at 75% chemical purity) to 1000 ml of 0.1M sodium phosphate buffer (pH 7.0). The reaction was started by adding 2 gm of the protease (F) from the fungus Aspergillus oryzae (from Amano Enzyme Corporation, Prozyme 6, 60,000 units per […] of solid). Reaction progress was followed by automatic titrimetry using a pH-stat.
The pH 9.5 solution was then acidified to pH 2 and extracted with 2 volumes of t-butyl methyl ether. The ether phase was first washed with two volumes of distilled water, then dried over MgSO4. and subsequently evaporated to dryness. The resolved ibuprofen product was recovered as about 6 gm of a white powder.
The optical rotation of the recovered product was measured by polarimetry; the experimentally determined value for [α]D was -56.7° (measured at c=0.815 in ethanol), thereby indicating the R isomer of ibuprofen. The sample was also analyzed by chiral HPLC using a Bakerbond DNBPG (covalent) column (4.6×250 mm), with 96.9% hexane:3.0% 2-propanol:0.1% acetonitrile as the mobile phase at 2 ml/min after derivatization with napthalene amine. The detector was a UV spectrophotometer set at 223 nm. The retention times for the S and R ibuprofen acids were 18.5 and 20.0 min, respectively. The optical purity or enantiomeric excess of this R ibuprofen sample as determined by this chiral HPLC procedure was 99.3% (i.e., enantiomeric excess of R ibuprofen).
The aqueous phase at pH 7.0 (as recovered from the extractive membrane reactor) was mixed with 280 gm of sodium chloride to salt out the remaining unconverted ester. The ester was filtered, washed with saturated sodium chloride, and air dried. 12.8 gm of ester were recovered in this manner. […] The optical rotation (as measured by polarimetry) was [α]D =+57.4° (c=1.29 in ethanol), indicating the S isomer of ibuprofen. […]

Test [5] concerns lipase from Candida cylindracea (Meito Sangyo, Lipase OF). Kind of test: Activity of Lipase OF against the ester. It counts as biochemical.

In the case of `CC(C)Cc1ccc(C(C)C(=O)OCS(=O)(=O)O)cc1` (centres unmarked) [Compound 1, Sodium Salt of 4-Sulfomethyl Ester of 2-(4-Isobutylphenyl)propanoic Acid], the “% e.e.” value in test [1] is reported as above 99%. Besides, in test [2] (100 mg Prozyme 6, 3.22 gm ester in 100 ml 0.2M sodium phosphate pH 7.0, 20 hours, room temperature), the “conversion of racemic ester to acid” value is 45%. Besides, the conversion in test [2] (3 gm enzyme F, 0.5M ester in 325 ml 0.1M sodium phosphate pH 7.0, 30 C, after 6.49 hours) turned out to be 37.7%; in test [3] it was 24%. The “Conversion in Homogeneous Aqueous Reaction System” value is on record as 40.9% in test [2] (3 gm enzyme F, 23.1 hours) and 37.7% in test [2] (3 gm enzyme F, Time 6.75 hrs). Moreover, the “conversion of the racemic ester to the acid” value in test [4] (enzyme in aqueous phase and membrane pores, 3 gm Prozyme 6, 0.5M ester, pH 7.0, 6.75 hours at 30 C) is recorded as 48.3%. Moreover, the “conversion of the racemic ester to ibuprofen acid” value in test [4] (enzyme in aqueous phase only (cellulose dialysis fibers), 2 gm Prozyme 6, 32.51 gm ester in 1000 ml pH 7.0, hexane, 6.3 hours, room temperature) is 50%. In addition, the “enantiomeric excess of R ibuprofen by chiral HPLC (acid product)” value in test [4] (enzyme in aqueous phase only, 6.3 hours) came out at 99.3%. Further, in test [4] (enzyme in aqueous phase only, 6.3 hours, ester hydrolysed at pH 12), the “enantiomeric excess of S ibuprofen by chiral HPLC (from unconverted ester)” value was found to be 98.9%. Moreover, the “activity of the lipase against the ester” value in test [5] was “inactive”.

Source of the values: patent US5196568A, “Compounds useful in enzymatic resolution systems and their preparation” (priority 1988, dated 1993).
